Assay results as given in patent publication US12590106B2, “Spiromacrocyclic orexin 2 receptor agonists” (H. Lundbeck A/S, priority 2023, dated 2026).

Biological target: T1, human Ox2R (Homo sapiens, UniProt O43614)
T1 construct: The gene encoding hOx2R was subcloned into the expression plasmid pcDNA5/FRT/TO; expressed in transfected cells; host or cells: CHO Flp-In cells (pcDNA5/FRT/TO with pOG44 Flp recombinase vector, hygromycin B selection)
T1 sequence (O43614 1-444): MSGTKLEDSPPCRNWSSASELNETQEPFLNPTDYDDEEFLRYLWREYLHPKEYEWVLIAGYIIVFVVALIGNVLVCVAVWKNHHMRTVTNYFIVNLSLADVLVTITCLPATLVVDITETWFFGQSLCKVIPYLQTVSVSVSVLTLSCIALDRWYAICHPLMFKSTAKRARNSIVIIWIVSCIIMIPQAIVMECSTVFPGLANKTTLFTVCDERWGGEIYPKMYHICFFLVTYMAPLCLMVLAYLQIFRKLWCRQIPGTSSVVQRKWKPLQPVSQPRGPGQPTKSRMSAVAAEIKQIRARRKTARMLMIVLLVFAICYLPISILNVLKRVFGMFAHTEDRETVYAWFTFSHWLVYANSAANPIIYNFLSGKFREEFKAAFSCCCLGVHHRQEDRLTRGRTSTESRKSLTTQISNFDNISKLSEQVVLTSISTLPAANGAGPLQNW
Test: Measurement of OX2R agonist activity (cell-based calcium release assay)
Conditions: hOx2R-CHO Flp-In cells, n≥2 tests; for EC50: intracellular calcium, read-out: EC50; for Emax / Emax (%): normalized to assay buffer (0%) and 10 μM Danavorexton (100%); for Emax: read-out: Emax (%)
From the text: Measurement of OX2R Agonist Activity
The Ox2R has a broad signaling profile and couple to a range of different Gα-proteins. The cell-based calcium release assay is primarily assessing signaling through the Gαq signaling pathway, which promotes calcium mobilization via inositol triphosphate production upon activation of Ox2R.
A CHO Flp-In cell-line stably expressing the human Ox2R (hOx2R-CHO Flp-In) was established as follows: The gene encoding hOx2R was subcloned into the expression plasmid pcDNA5/FRT/TO and then transfected into CHO Flp-In cells together with the Flp recombinase vector, pOG44. Cells were cultured in growth medium: Ham's F12 (Gibco), 10% fetal bovine serum (Gibco) and 100 U/mL penicillin-streptomycin (Gibco) supplemented with hygromycin B (Thermo Fisher Scientific) as selection marker at 37° C. in the presence of 5% CO2.
To prepare the hOx2R-CHO FlpIn cells for calcium release assay, the cells were suspended in growth medium and seeded in black, clear-bottomed 384-well plates (Corning) at 10,000 cells/well. The plated cells were grown overnight at 37° C. and 5% CO2. The following day, the media was removed, and the cells were incubated with assay buffer (HBSS with 20 mM HEPES, pH 7.4) containing 2.5 mM probenecid (Thermo Fisher Scientific), 10 mM CaCl2, 0.1% pluronic F68 (Gibco) and 1× calcium-4 dye (Molecular Devices) for 1 h at 37° C. and 5% CO2. After incubation, cells were allowed to equilibrate at room temperature for 15 minutes and then loaded into FDSS7000Ex system (Hamamatsu Photonics) together with a plate containing test compounds serially diluted in assay buffer. Cells were stimulated with test compounds (online injection) and the agonist activity was determined as an increase in intracellular calcium concentration measured from the ratio of fluorescence emission at 542 nm by excitation at 480 nm. The agonist response for each applied concentration was assessed as the ratio: maximum fluorescence/average pre-stimulated fluorescence and was normalized to responses from assay buffer alone (0% response) and 10 μM Danavorexton (100% response). EC50 and Emax values were calculated from concentration-response curves by using Genedata Screener software.

| SMILES | EC50 [nM] | Emax [%] | Emax (%) |
| --- | --- | --- | --- |
| CCS(=O)(=O)N[C@H]1CC[C@@]2(Cc3ccc(F)c(c3)-c3ccc(F)c(F)c3OCc3coc2n3)C1 [Example 35, N-[(1′S,14R)-5,6,19-trifluorospiro[8,12-dioxa-21-azatetracyclo[14.3.1.110,13.02,7]henicosa-1(19),2,4,6,10,13(21),16(20),17-octaene-14,3′-cyclopentane]-1′-yl]ethanesulfonamide] | 1.4 | 100 | – |
| Cc1cccc2c1OCc1coc(n1)[C@]1(CC[C@H](NS(C)(=O)=O)C1)Cc1ccc(F)c-2c1 [Example 37, N-[(1′S,14R)-19-fluoro-6-methyl-spiro[8,12-dioxa-21-azatetracyclo[14.3.1.110,13.02,7]henicosa-1(19),2,4,6,10,13(21),16(20),17-octaene-14,3′-cyclopentane]-1′-yl]methanesulfonamide] | 1.1 | 96 | – |
| CS(=O)(=O)N[C@H]1CC[C@@]2(Cc3cccc(c3)-c3ccccc3OCc3coc2n3)C1 [Example 38, N-[(1′S,14R)-spiro[8,12-dioxa-21-azatetracyclo[14.3.1.110,13.02,7]henicosa-1(20),2,4,6,10,13(21),16,18-octaene-14,3′-cyclopentane]-1′-yl]methanesulfonamide] | 4.3 | 99 | – |
| CS(=O)(=O)N[C@H]1CC[C@@]2(COCCc3cccc(c3)OCc3coc2n3)C1 [Example 40, N-[(1′S,8S)-spiro[2,6,10-trioxa-18-azatricyclo[11.3.1.14,7]octadeca-1(17),4,7(18),13,15-pentaene-8,3′-cyclopentane]-1′-yl]methanesulfonamide] | 1700 | 94 | – |
| CS(=O)(=O)N[C@H]1CC[C@@]2(CO[C@H]3CC[C@H](CC3)c3cccc(c3)OCc3coc2n3)C1 [Example 41, N-[(1s,1′S,13S,16s)-spiro[7,11,15-trioxa-21-azatetracyclo[14.2.2.12,6.19,12]docosa-2,4,6(22),9,12(21)-pentaene-13,3′-cyclopentane]-1′-yl]methanesulfonamide] | 0.19 | 98 | – |
| CS(=O)(=O)N[C@H]1CC[C@@]2(CO[C@H]3CC[C@H](CC3)c3cccnc3OCc3coc2n3)C1 [Example 43, N-[(1s,1′S,14R,17s)-spiro[8,12,16-trioxa-6,22-diazatetracyclo[15.2.2.110,13.02,7]docosa-2,4,6,10,13(22)-pentaene-14,3′-cyclopentane]-1′-yl]methanesulfonamide] | 0.69 | 100 | – |
| CS(=O)(=O)N[C@H]1CC[C@@]2(Cc3cccc(c3)-c3cccc(F)c3OCc3coc2n3)C1 [Example 44, N-[(1′S,14R)-6-fluorospiro[8,12-dioxa-21-azatetracyclo[14.3.1.110,13.02,7]henicosa-1(19),2,4,6,10,13(21),16(20),17-octaene-14,3′-cyclopentane]-1′-yl]methanesulfonamide] | 0.54 | 99 | – |
| CS(=O)(=O)N[C@H]1CC[C@@]2(Cc3ccc(F)c(c3)-c3ccccc3OCc3coc2n3)C1 [Example 45, N-[(1′S,14R)-19-fluorospiro[8,12-dioxa-21-azatetracyclo[14.3.1.110,13.02,7]henicosa-1(19),2,4,6,10,13(21),16(20),17-octaene-14,3′-cyclopentane]-1′-yl]methanesulfonamide] | 0.34 | 97 | – |
| CS(=O)(=O)N[C@H]1CC[C@@]2(Cc3ccc(F)c(c3)-c3cccc(F)c3OCc3csc2n3)C1 [Example 46, N-[(1′S,14R)-6,19-difluorospiro[8-oxa-12-thia-21-azatetracyclo[14.3.1.110,13.02,7]henicosa-1(19),2,4,6,10,13(21),16(20),17-octaene-14,3′-cyclopentane]-1′-yl]methanesulfonamide] | 0.14 | 99 | – |
| CS(=O)(=O)N[C@H]1CC[C@@]2(Cc3cccc(c3)-c3cccc(n3)OCc3coc2n3)C1 [Example 47, N-[(1′S,13R)-spiro[7,11-dioxa-20,21-diazatetracyclo[13.3.1.12,6.19,12]henicosa-1(19),2,4,6(21),9,12(20),15,17-octaene-13,3′-cyclopentane]-1′-yl]methanesulfonamide] | 8.6 | 96 | – |
| CS(=O)(=O)N[C@H]1CC[C@@]2(Cc3cccc(c3)-c3cccc(c3)OCc3coc2n3)C1 [Example 48, N-[(1′S,13R)-spiro[7,11-dioxa-20-azatetracyclo[13.3.1.12,6.19,12]henicosa-1(19),2,4,6(21),9,12(20),15,17-octaene-13,3′-cyclopentane]-1′-yl]methanesulfonamide] | 15 | 95 | – |
| CS(=O)(=O)N[C@H]1CC[C@@]2(Cc3cc(ccn3)-c3ccccc3OCc3coc2n3)C1 [Example 49, N-[(1′S,14S)-spiro[8,12-dioxa-17,21-diazatetracyclo[14.3.1.110,13.02,7]henicosa-1(20),2,4,6,10,13(21),16,18-octaene-14,3′-cyclopentane]-1′-yl]methanesulfonamide] | 2000 | 94 | – |
| C[C@H]1C[C@H](NS(C)(=O)=O)C[C@]12Cc1ccc(F)c(c1)-c1cccc(F)c1OCc1coc2n1 [Example 60, N-[(1′S,4′S,14R)-6,19-difluoro-4′-methyl-spiro[8,12-dioxa-21-azatetracyclo[14.3.1.110,13.02,7]henicosa-1(19),2,4,6,10,13(21),16(20),17-octaene-14,3′-cyclopentane]-1′-yl]methanesulfonamide or N-[(1′R,4′R,14S)-6,19-difluoro-4′-methyl-spiro[8,12-dioxa-21-azatetracyclo[14.3.1.110,13.02,7]henicosa-1(19),2,4,6,10,13(21),16(20),17-octaene-14,3′-cyclopentane]-1′-yl]methanesulfonamide] | 0.33 | – | 100 |
| C[C@H]1C[C@H](NS(C)(=O)=O)C[C@]12Cc1ccc(F)c(c1)-c1cccc(F)c1OCc1coc2n1 [Example 61, N-[(1′S,4′S,14R)-6,19-difluoro-4′-methyl-spiro[8,12-dioxa-21-azatetracyclo[14.3.1.110,13.02,7]henicosa-1(19),2,4,6,10,13(21),16(20),17-octaene-14,3′-cyclopentane]-1′-yl]methanesulfonamide or N-[(1′R,4′R,14S)-6,19-difluoro-4′-methyl-spiro[8,12-dioxa-21-azatetracyclo[14.3.1.110,13.02,7]henicosa-1(19),2,4,6,10,13(21),16(20),17-octaene-14,3′-cyclopentane]-1′-yl]methanesulfonamide] | 140 | – | 96 |
| C[C@@H]1C[C@@H](NS(C)(=O)=O)C[C@@]12Cc1ccc(F)c(c1)-c1ccccc1OCc1coc2n1 [Example 62, N-[(1′R,4′R,14S)-19-fluoro-4′-methyl-spiro[8,12-dioxa-21-azatetracyclo[14.3.1.110,13.02,7]henicosa-1(19),2,4,6,10,13(21),16(20),17-octaene-14,3′-cyclopentane]-1′-yl]methanesulfonamide or N-[(1′S,4′S,14R)-19-fluoro-4′-methyl-spiro[8,12-dioxa-21-azatetracyclo[14.3.1.110,13.02,7]henicosa-1(19),2,4,6,10,13(21),16(20),17-octaene-14,3′-cyclopentane]-1′-yl]methanesulfonamide] | 160 | – | 100 |
